Reference: US20160238590A1, “COMPOSITIONS AND METHODS RELATED TO OAT SENSITIVITY” (IMMUSANT, INC., priority 2013, published 2016)
Where no end group is shown, it is not given here. [ ]: non-standard residue; d: D form. pGlu = O=C1CC[C@@H](C(=O)O)N1

Legend:
Assay type in all cases: cell-based, human
Patient 14 TCC-01 = test: IFN-γ ELISpot with T cell clone; settings: TCC Patient 14 TCC-01 (Table 5); mean no antigen 11.3, high background, SFU >25 considered as positive responses
Experimental: (§1) Peripheral blood mononuclear cells (PBMC) were isolated from heparinized whole blood using Ficoll-Paque™ Plus density-gradient centrifugation (GE Healthcare). IFN-γ ELISpot (Mabtech) was set up as previously described^8.
(§2) Isolation of TCC from CD patients was carried out as previously described^8. Briefly, CFSE-labeled PBMC were incubated with antigen for 7 days in IMDM supplemented with 5% heat-inactivated pooled human serum (PHS), 2 mM GlutaMAX™, 100 μM MEM non-essential amino acids (both from Gibco, Invitrogen), and 50 μM 2-mercaptoethanol (Sigma). Proliferated cells were single-cell sorted into 96-well plates containing IL-2, IL-4, anti-CD3 mAb, irradiated feeder cells (allogeneic PBMC and JY-EBV). TCC were expanded and maintained in IL-2 and IL-4 and tested for specificity by ELISpot with irradiated HLA-matched PBMC as antigen-presenting cells. Expanded clones were tested for HLA-DQ restriction, TCR Vbeta usage, and with lysine scans to work out minimal epitopes. See Table 1 below for TCC and epitope information.

Patient 2 TCC-01 = test: IFN-γ ELISpot with T cell clone; settings: TCC Patient 2 TCC-01 (Table 5); mean no antigen 1.1
Experimental: as §1, §2

Patient 6 TCC-01 = test: IFN-γ ELISpot with T cell clone; settings: TCC Patient 6 TCC-01 (Table 5); mean no antigen 2
Experimental: as §1, §2

PBMC [1] = test: IFN-γ ELISpot on PBMC of CD patients on day 6 after 3-day oats challenge
From the text: (§3) Australian Caucasian HLA-DQ2.5^+ and/or HLA-DQ8^+ CD subjects were recruited by advertisement in the Coeliac Society of Victoria newsletter and all had biopsy-proven CD conforming to ESPGHAN criteria. Patients had been on strict gluten free diet for at least 4 weeks prior to commencing grain challenge. Patients underwent 3-day grain challenge with oats, barley, or combined wheat, barley, and rye muffins, and 6 days after commencement, blood was collected. Day 0 responses were not observed in the selection of patients tested, as described previously^8.
(§4) Oats challenge consisted of 100 g dry weight daily of one of three commercial brands of oats: one not tested for wheat contamination (Uncle Toby's; Oats #1), and two shown by R5 ELISA to contain less than 20 ppm wheat gluten (Tilquhilie Pudding; Oats #2 and Freedom Food; Oats #3). Barley challenge consisted of pearl barley (Ward McKenzie) cooked into a risotto (150 g dry weight daily) and the wheat challenge consisted of four 50 g slices of wheat bread daily (Baker's Delight white loaf cut to toasting thickness). The combined wheat, barley, and rye challenge consisted of muffins baked with wheat flour (White Wings), barley flour (Four Leaf Milling), and rye flour (Four Leaf Milling; 22-25 g dry weight each daily). A symptom diary based on a […] Likert scale was completed by participants daily from baseline until day 6.
(§5) Two avenin peptide libraries were utilized for epitope screening. These were designed using avenin sequences from GenBank and a customized algorithm, as previously described^9. The initial library consisted of 199 screening-grade 20 mers including all possible 12 mers (Mimotopes). This library was screened with and without tTG pre-treatment. The second library consisted of additional avenin sequences that were synthesized with glutamate substitution at sites predicted to be deamidated by published algorithms^10, 11 removing the requirement for tTG treatment. This library contained 369 screening-grade 20 mers, including all possible 12 mers (Pepscan). The second round avenin library contained wild-type and deamidated versions of the most immunogenic sequences (25 high quality 16 mers from Mimotopes). High quality peptides containing previously described immunogenic sequences from wheat, barley, and rye were used to test for cross-reactivity^8 (Pepscan). High quality hordein and avenin peptides for TCC testing and biochemical studies were ordered from Pepscan, Mimotopes, or GL Biochem.
as §1

PBMC [2] = test: IFN-γ ELISpot on PBMC of CD patients after 3-day barley challenge; settings: after barley challenge
From the text: as §3, §4, §5, §1

[3] = patient P2, peptide 100 μg/ml, after 3-day oats challenge

pEQPFPQPEQPTPIQ ([pGlu]QPFPQPEQPTPIQ) [rye peptide, AAB58403.1 (65-78) [Q65 to pyroglutamate, Q72 to E], reference compound]
IFN-γ ELISpot response (raw SFU) (Patient 14 TCC-01): 20 SFU | IFN-γ ELISpot response (raw SFU) (Patient 2 TCC-01): 1 SFU | IFN-γ ELISpot response (raw SFU) (Patient 6 TCC-01): 34 SFU

PQPYPEQPQPFPQQPP [barley peptide, 1103203B (39-54) [Q44 to E]]
IFN-γ ELISpot response (raw SFU) (Patient 14 TCC-01): 12 SFU | IFN-γ ELISpot response (raw SFU) (Patient 2 TCC-01): 292 SFU | IFN-γ ELISpot response (raw SFU) (Patient 6 TCC-01): 69 SFU

SEQYQPYPEQQEPFVQ [avenin peptide of Genbank Q09097.1, wild-type]
IFN-γ ELISpot response (raw SFU) (PBMC [1]; patient P1, peptide 1 μg/ml, after 3-day oats challenge): 3 SFU | IFN-γ ELISpot response (raw SFU) (PBMC [1]; patient P1, peptide 10 μg/ml, after 3-day oats challenge): 5 SFU | IFN-γ ELISpot response (raw SFU) (PBMC [1]; patient P1, peptide 100 μg/ml, after 3-day oats challenge): 3 SFU | IFN-γ ELISpot response (raw SFU) (PBMC [1]; patient P2, peptide 1 μg/ml, after 3-day oats challenge): 3 SFU | IFN-γ ELISpot response (raw SFU) (PBMC [1]; patient P2, peptide 10 μg/ml, after 3-day oats challenge): 3 SFU | IFN-γ ELISpot response (raw SFU) (PBMC [1]; [3]): 16 SFU | significant SFU as a percentage of maximal peptide SFU (PBMC [1]; [3]): * (*: 20-40%) | IFN-γ ELISpot response (raw SFU) (PBMC [1]; patient P3, peptide 1 μg/ml, after 3-day oats challenge): 8 SFU | IFN-γ ELISpot response (raw SFU) (PBMC [1]; patient P3, peptide 10 μg/ml, after 3-day oats challenge): 9 SFU | IFN-γ ELISpot response (raw SFU) (PBMC [1]; patient P3, peptide 100 μg/ml, after 3-day oats challenge): 4 SFU | IFN-γ ELISpot response (raw SFU) (PBMC [1]; patient P11, peptide 1 μg/ml, after 3-day oats challenge): 0 SFU | IFN-γ ELISpot response (raw SFU) (PBMC [1]; patient P11, peptide 10 μg/ml, after 3-day oats challenge): 0 SFU | IFN-γ ELISpot response (raw SFU) (PBMC [1]; patient P11, peptide 100 μg/ml, after 3-day oats challenge): 0 SFU | IFN-γ ELISpot response (raw SFU) (PBMC [1]; patient P12, peptide 1 μg/ml, after 3-day oats challenge): 1 SFU | IFN-γ ELISpot response (raw SFU) (PBMC [1]; patient P12, peptide 10 μg/ml, after 3-day oats challenge): 3 SFU | IFN-γ ELISpot response (raw SFU) (PBMC [1]; patient P12, peptide 100 μg/ml, after 3-day oats challenge): 0 SFU | IFN-γ ELISpot response (raw SFU) (PBMC [1]; patient P13, peptide 50 μg/ml, after 3-day oats challenge): 9 SFU

pEPEQPFPEQPQQII ([pGlu]PEQPFPEQPQQII) [rye peptide, AAB58403.1 (187-200) [Q187 to pyroglutamate, Q189 to E, Q194 to E], reference compound]
IFN-γ ELISpot response (raw SFU) (Patient 14 TCC-01): 58 SFU | IFN-γ ELISpot response (raw SFU) (Patient 2 TCC-01): 0 SFU | IFN-γ ELISpot response (raw SFU) (Patient 6 TCC-01): 0 SFU

QYQPYPEQEQPILQQ [partially deamidated avenin peptide]
patients in which the peptide was the most immunogenic (PBMC [1]; oats responders after 3-day oats challenge): 5 patients

pEQPQPYPEQPQPYP ([pGlu]QPQPYPEQPQPYP) [barley peptide, AFM77740.1 (31-44) [Q31 to pyroglutamate, Q38 to E]]
IFN-γ ELISpot response (raw SFU) (Patient 14 TCC-01): 27 SFU | IFN-γ ELISpot response (raw SFU) (Patient 2 TCC-01): 316 SFU | IFN-γ ELISpot response (raw SFU) (Patient 6 TCC-01): 52 SFU

PSEQYQPYPEQEQPILQQEE [avenin library peptide]
IFN-γ ELISpot response (raw SFU) (PBMC [2]; Patient 1, peptide 50 μg/ml): 27 SFU | significant SFU as a percentage of maximal peptide SFU (PBMC [2]; Patient 1, peptide 50 μg/ml): (^: 5-10%) | IFN-γ ELISpot response (raw SFU) (PBMC [2]; Patient 2, peptide 50 μg/ml): 159 SFU | significant SFU as a percentage of maximal peptide SFU (PBMC [2]; Patient 2, peptide 50 μg/ml): *** (***: >70%) | IFN-γ ELISpot response (raw SFU) (PBMC [2]; Patient 3, peptide 50 μg/ml): 7 SFU

EQYQPYPEQEQPFVQQQPPF [avenin library peptide]
IFN-γ ELISpot response (raw SFU) (PBMC [2]; Patient 1, peptide 50 μg/ml): 99 SFU | significant SFU as a percentage of maximal peptide SFU (PBMC [2]; Patient 1, peptide 50 μg/ml): * (*: 20-40%) | IFN-γ ELISpot response (raw SFU) (PBMC [2]; Patient 2, peptide 50 μg/ml): 192 SFU | significant SFU as a percentage of maximal peptide SFU (PBMC [2]; Patient 2, peptide 50 μg/ml): *** (***: >70%) | IFN-γ ELISpot response (raw SFU) (PBMC [2]; Patient 3, peptide 50 μg/ml): 14 SFU | significant SFU as a percentage of maximal peptide SFU (PBMC [2]; Patient 3, peptide 50 μg/ml): (^: 5-10%) | IFN-γ ELISpot response (raw SFU) (Patient 2 TCC-01): 283 SFU | IFN-γ ELISpot response (raw SFU) (Patient 6 TCC-01): 30 SFU
